{
  "source": "patent US4837207A",
  "about": "“Diastereoisomers of n^6 -endo-bicyclo[2.2.1]heptyladenosine as antihypertensives with selective action” (priority 1987, dated 1989)",
  "key": {"[1]": {"assay": "Antihypertensive evaluation (AHP3)", "assay_type": "in vivo", "details": "AHP3 antihypertensive assay; Table 2; read-out: ED40 (Dose causing a 40 nm drop in blood pressure)", "from_the_text": "*Dose causing a […] drop in blood pressure, mg/kg."}, "A1 adenosine receptor": {"target": "T1, A1 adenosine receptor (Rattus norvegicus, UniProt P25099)", "T1 construct": "from tissue", "T1 sequence (P25099 1-326)": "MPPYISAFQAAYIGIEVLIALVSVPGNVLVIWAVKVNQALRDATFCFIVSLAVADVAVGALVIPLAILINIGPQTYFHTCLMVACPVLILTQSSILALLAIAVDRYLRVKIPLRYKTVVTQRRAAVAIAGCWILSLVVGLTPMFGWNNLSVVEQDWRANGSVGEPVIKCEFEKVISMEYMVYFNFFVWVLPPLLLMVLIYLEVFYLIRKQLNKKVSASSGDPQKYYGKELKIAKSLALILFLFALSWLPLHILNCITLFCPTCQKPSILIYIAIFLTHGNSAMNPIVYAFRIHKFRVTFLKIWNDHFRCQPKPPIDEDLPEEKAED", "assay": "adenosine A1 receptor binding affinity", "details": "Table 1, n = 2 (mixture, VII'), n = 1 (VII\"), read-out: A1 IC50 ± SE"}},
  "data": [
    {"smiles": "OC[C@H]1O[C@@H](n2cnc3c(N[C@H]4C[C@H]5CC[C@@H]4C5)ncnc32)[C@H](O)[C@@H]1O", "note": "[Example 1 (VII'), (1R-endo)-N-Bicyclo[2.2.1]hept-2-yl adenosine]", "values": [
      {"measurement": "ED (40 mm drop in blood pressure)", "setting": "[1]", "value": 0.16, "unit": "mg/kg"}
    ]},
    {"smiles": "OC[C@H]1O[C@@H](n2cnc3c(N[C@@H]4C[C@@H]5CC[C@H]4C5)ncnc32)[C@H](O)[C@@H]1O", "note": "[Example 2 (VII\"), (1S-endo)-N-Bicyclo[2.2.1]hept-2-yl adenosine]", "values": [
      {"measurement": "IC50", "setting": "A1 adenosine receptor", "value": 2.63, "unit": "nM"},
      {"measurement": "ED (40 mm drop in blood pressure)", "setting": "[1]", "value": 0.7, "unit": "mg/kg"}
    ]},
    {"smiles": "OC[C@H]1O[C@@H](n2cnc3c(NC4CC5CCC4C5)ncnc32)[C@H](O)[C@@H]1O", "note": "(mixture of isomers) [Diastereomeric mixture, N^6-endo-bicyclo[2.2.1]heptyl adenosine]", "values": [
      {"measurement": "IC50", "setting": "A1 adenosine receptor", "value": "0.738 ± 0.088", "unit": "nM"},
      {"measurement": "ED (40 mm drop in blood pressure)", "setting": "[1]", "value": 0.6, "unit": "mg/kg"}
    ]}
  ]
}
